# According to PMC9833666, “Designing and identifying β-hairpin peptide macrocycles with antibiotic potential” (Science Advances, 2023):
# Read-outs that look alike come from different tables or passages of the source. Bridge positions count the residues as written; N and C are the ends. Ends that are not written are not given here. Peptide text beside a SMILES is read from it.
# Key:
# Escherichia coli W3110 = format: cell-based; conditions: for Ec W3110 MIC MH: E. coli W3110, MH medium; for Ec W3110 MIC RPMI: E. coli W3110, RPMI medium
# [1] = test system: Single-donor human red blood cells; assay: Hemolysis assay; format: cell-based
# Experimental: Single-donor human red blood cells (Innovative Research, no. IWB3ALS) were washed in PBS and adjusted to a concentration of 1 × 10^9 cells/ml. Each peptide was added individually to 200 μl of cells at a concentration of either 300 μg/ml (SySA library) or 128 μg/ml (SySA-5 optimization library) in a 96-well polypropylene plate (Corning, 3879). PBS alone and 1% Triton X-100 were used for background normalization and 100% hemolysis, respectively. Each reaction was set up in triplicate. Plates were incubated for 3 hours at 37°C. Following incubation, samples were centrifuged at 800g for 20 min, and 100 μl of supernatant was transferred to a flat-bottom 96-well plate (Genesse, 25-104). Percent hemolysis for each sample was determined by normalizing the absorbance at 540 nm for each sample to the average background and dividing by the average absorbance for 1% Triton X-100 (100% hemolysis). Error bars represent 1 SD of triplicate samples.
Molecule,Ec W3110 MIC MH (Escherichia coli W3110),Ec W3110 MIC RPMI (Escherichia coli W3110),hemolysis [1],also measured
CC[C@H](C)[C@@H]1NC(=O)[C@H](CCCNC(=N)N)NC(=O)[C@H](CC(C)C)NC(=O)[C@H](CCCNC(=N)N)NC(=O)CNC(=O)[C@H](CCCNC(=N)N)NC(=O)[C@H](CCCNC(=N)N)NC(=O)[C@H](CC(=O)O)NC(=O)[C@H](CC(=O)O)NC(=O)[C@H](CC(C)C)NC(=O)[C@H](CCCNC(=N)N)NC(=O)[C@H](C(C)C)NC(=O)[C@H](CCCNC(=N)N)NC(=O)[C@H](CC(C)C)NC(=O)[C@@H](N)CSSC[C@@H](C(=O)O)NC(=O)[C@H](C(C)C)NC(=O)[C@H](CCC(N)=O)NC(=O)[C@H](CC(C)C)NC(=O)[C@H](CO)NC1=O [SyPA-9] (H-CLRVRLDDRRGRLRISLQVC-OH; disulfide 1-20),–,–,–,W3110 MIC (Escherichia coli W3110; W3110): 64 µg/mL; %Hemo [1]: 11.36%
CC(C)C[C@@H]1NC(=O)[C@H](CCCNC(=N)N)NC(=O)[C@H](C(C)C)NC(=O)[C@H](CCCNC(=N)N)NC(=O)[C@H](C(C)C)NC(=O)[C@@H](N)CSSC[C@@H](C(=O)O)NC(=O)[C@H](C(C)C)NC(=O)[C@H](CCC(N)=O)NC(=O)[C@H](C(C)C)NC(=O)[C@H](CO)NC(=O)[C@H](C(C)C)NC(=O)[C@H](CCCNC(=N)N)NC(=O)[C@H](C(C)C)NC(=O)[C@H](CCCNC(=N)N)NC(=O)[C@H](CCCNC(=N)N)NC(=O)[C@H](CCCNC(=N)N)NC(=O)[C@H](CCCNC(=N)N)NC(=O)[C@H](CC(N)=O)NC(=O)[C@H](CC(N)=O)NC1=O [SyPA-10] (H-CVRVRLNNRRRRVRVSVQVC-OH; disulfide 1-20),–,–,–,"W3110 MIC (Escherichia coli W3110; SyPA peptides, MH, replicate 2): 16 µg/mL; W3110 MIC (Escherichia coli W3110; SyPA peptides, MH, replicate 3): 16 µg/mL; %Hemo ([1]; SyPA peptides, human red blood cells, 3 h 37°C, relative to 1% Triton X-100, peptide concentration not stated for SyPA, n=3): 1.99%"
"NC[C@H]1O[C@H](O[C@H]2[C@H](O)[C@@H](O[C@H]3O[C@H](CO)[C@@H](O)[C@H](N)[C@H]3O)[C@H](N)C[C@@H]2N)[C@H](O)[C@@H](O)[C@@H]1O [kanamycin, reference compound]",1 µg/mL,–,–,"W3110 MIC MHII (Escherichia coli W3110; E. coli W3110, MHII medium): 2 µg/mL; fold increase in MHII MIC relative to standard MH (Escherichia coli W3110; cation-adjusted MH (MHII) vs standard MH): twofold; Hemolysis (%) ([1]; human red blood cells 1x10^9 cells/ml, peptide 300 μg/ml, 3 h 37°C, relative to 1% Triton X-100, A540, ± 1 SD, n=3): 0.1 ± 0.03%; hemolysis ([1]; human red blood cells, st dev in separate column): 0.0147%"
CLRIRVNNRGSGLRISVEVC (disulfide 1-20 (inferred)) [SySA-22],> 256 µg/mL,> 256 µg/mL,0.48%,–
CLTIRVNNRRGRVRISVQVC (disulfide 1-20 (inferred)) [SySA-15],> 256 µg/mL,> 256 µg/mL,0.80%,–
CRIKVDINNRSGRVKLQVQC (disulfide 1-20 (inferred)) [SySA-20],> 256 µg/mL,> 256 µg/mL,0.42%,–
CRIRIDIDNRGRTVRLEVQC (disulfide 1-20 (inferred)) [SySA-28],> 256 µg/mL,> 256 µg/mL,0.0423%,–
CRIRIDVNNGSGRLKLQLEC (disulfide 1-20 (inferred)) [SySA-21],> 256 µg/mL,> 256 µg/mL,0.42%,–
CRIRINIDNRSGTVRLEVQC (disulfide 1-20 (inferred)) [SySA-3],> 256 µg/mL,> 256 µg/mL,0.24%,–
CRIRINVNNRGRTLKLEVQC (disulfide 1-20 (inferred)) [SySA-10],> 256 µg/mL,> 256 µg/mL,0.40%,–
CRIRVNINNRRRTLRLEVEC (disulfide 1-20 (inferred)) [SySA-35],> 256 µg/mL,> 256 µg/mL,0.12%,–
CRVKINIDNRSRRVKLQVQC (disulfide 1-20 (inferred)) [SySA-6],> 256 µg/mL,> 256 µg/mL,0.66%,–
CRVRININNGGRRVKLEVQC (disulfide 1-20 (inferred)) [SySA-32],> 256 µg/mL,> 256 µg/mL,0.0319%,–
CRVRVNINNGSGRVKLELEC (disulfide 1-20 (inferred)) [SySA-19],> 256 µg/mL,> 256 µg/mL,0.33%,–
CRVRVNINNRGGTVKLQLQC (disulfide 1-20 (inferred)) [SySA-13],> 256 µg/mL,> 256 µg/mL,0.91%,–
CVRVRLDNRGGGLRISLEVC (disulfide 1-20 (inferred)) [SySA-2],> 256 µg/mL,> 256 µg/mL,0.57%,–
CVRVRVDNRGSRVKVTVQVC (disulfide 1-20 (inferred)) [SySA-12],> 256 µg/mL,> 256 µg/mL,0.30%,–
CVRVRVNNRGGGVRITLQVC (disulfide 1-20 (inferred)) [SySA-24],> 256 µg/mL,> 256 µg/mL,0.38%,–
CVTIRLNDGGSGLKISLQVC (disulfide 1-20 (inferred)) [SySA-23],> 256 µg/mL,> 256 µg/mL,-0.03%,–
CVTIRVDNRGSRLKISVQVC (disulfide 1-20 (inferred)) [SySA-33],> 256 µg/mL,> 256 µg/mL,0.26%,–

# Now from value to molecule, other results behind:
Ec W3110 MIC MH (Escherichia coli W3110),Ec W3110 MIC RPMI (Escherichia coli W3110),Molecule,hemolysis [1],also measured
> 256 µg/mL,> 256 µg/mL,CLRIRLNNRGRGVKVSVEVC (disulfide 1-20 (inferred)) [SySA-46],0.47%,–
> 256 µg/mL,> 256 µg/mL,CLRIRLNNRRSRVRISVEVC (disulfide 1-20 (inferred)) [SySA-52],9.99%,–
> 256 µg/mL,> 256 µg/mL,CLRIRVDNRGSGVKVTLEVC (disulfide 1-20 (inferred)) [SySA-57],0.25%,–
> 256 µg/mL,> 256 µg/mL,CLRVRVDNGGSRLKITLEVC (disulfide 1-20 (inferred)) [SySA-75],2.18%,–
> 256 µg/mL,> 256 µg/mL,CLRVRVNDRGSGVKITVEVC (disulfide 1-20 (inferred)) [SySA-39],0.28%,–
> 256 µg/mL,> 256 µg/mL,CLRVRVNNRRSGVRVTLEVC (disulfide 1-20 (inferred)) [SySA-67],0.70%,–
> 256 µg/mL,> 256 µg/mL,CLTIRVDNRGSRVRITLEVC (disulfide 1-20 (inferred)) [SySA-70],0.92%,–
> 256 µg/mL,> 256 µg/mL,CLTVRLDNRGRGLKISVEVC (disulfide 1-20 (inferred)) [SySA-60],0.53%,–
> 256 µg/mL,> 256 µg/mL,CLTVRLDNRGSGLRITVEVC (disulfide 1-20 (inferred)) [SySA-44],-0.0761%,–
> 256 µg/mL,> 256 µg/mL,CLTVRLNNRGGGVKISVEVC (disulfide 1-20 (inferred)) [SySA-59],0.32%,–
> 256 µg/mL,> 256 µg/mL,CLTVRVDNRGSRLKVTVEVC (disulfide 1-20 (inferred)) [SySA-55],-0.10%,–
> 256 µg/mL,> 256 µg/mL,CLTVRVNNRGSGVKVSLEVC (disulfide 1-20 (inferred)) [SySA-54],1.51%,–
> 256 µg/mL,> 256 µg/mL,CLTVRVNNRRSGVRVSVQVC (disulfide 1-20 (inferred)) [SySA-43],0.11%,–
> 256 µg/mL,> 256 µg/mL,CRIKIDVDNRRRTLKLQLEC (disulfide 1-20 (inferred)) [SySA-74],0.72%,–
> 256 µg/mL,> 256 µg/mL,CRIRIDVNNRSGTLKLQVQC (disulfide 1-20 (inferred)) [SySA-36],-0.0122%,–
> 256 µg/mL,> 256 µg/mL,CRIRININNRRGRLKLQVEC (disulfide 1-20 (inferred)) [SySA-76],0.27%,–
> 256 µg/mL,> 256 µg/mL,CRIRINVNNGSGRVRLELEC (disulfide 1-20 (inferred)) [SySA-77],0.32%,–
> 256 µg/mL,> 256 µg/mL,CRVKINVDNRSGRVKLELQC (disulfide 1-20 (inferred)) [SySA-69],0.72%,–
> 256 µg/mL,> 256 µg/mL,CRVKINVNNRGRTLKLELEC (disulfide 1-20 (inferred)) [SySA-58],0.000315%,–
> 256 µg/mL,> 256 µg/mL,CRVKVNINNGSRRLRLQVQC (disulfide 1-20 (inferred)) [SySA-50],0.34%,–
> 256 µg/mL,> 256 µg/mL,CRVRIDIDNRSRTLKLEVQC (disulfide 1-20 (inferred)) [SySA-64],0.70%,–
> 256 µg/mL,> 256 µg/mL,CRVRINIDNRSGRVKLEVQC (disulfide 1-20 (inferred)) [SySA-87],4.63%,–
> 256 µg/mL,> 256 µg/mL,CRVRININNRSRTLKLELEC (disulfide 1-20 (inferred)) [SySA-68],0.47%,–
> 256 µg/mL,> 256 µg/mL,CVRIRLNNGGSGVKVTVEVC (disulfide 1-20 (inferred)) [SySA-85],1.81%,–
